Patent US9023789B2, “Amylin analogs and pharmaceutical compositions thereof” (Novo Nordisk A/S, priority 2012, dated 2015)
Numbered stars: 1 amine (or outer) side, 2 acyl side, 3 side chain; on linkers, the order of the positions; unused ones are H or OH. Bridge positions count the residues as written; N and C are the ends. Side chains are listed from the residue outwards. Peptide text beside a SMILES is read from it. * marks the point of attachment. C20 diacid = O=C(O)CCCCCCCCCCCCCCCCCCC(=O)*; γGlu = O=C(O)[C@H](CCC(=O)[*:2])N[*:1]

Experiments:
Male Wistar rats = experiment: ASSAY (XII) effect from single subcutaneous administration on plasma calcium in rats; assay type: in vivo, rat
Description: Assay (XII)—Effect from Single Subcutaneous Administration of Analogue on Plasma Calcium in Rats
Male Wistar rats (Taconic Europe, ˜250 g at test date) were acclimatized to handling prior to the study. Rats were divided in groups of five and subcutaneously dosed with test compound at time=0. At time T=−15 min; 1 h, 2 h, 4 h, 7 h, 12 h, and 24 h a blood sample was obtained and heparin stabilized plasma was analysed for total calcium (Cobas, Hitachi). Data are illustrated in graphs as mean±SEM.

Male Sprague-Dawley rats = experiment: ASSAY (XI) single subcutaneous administration, food intake monitored for 48 hours in rats; assay type: in vivo, rat; conditions: single s.c., 30 nmol/kg, compared to vehicle
From the text: Assay (XI)—Effect from Single Subcutaneous Administration of Analogue on Plasma Calcium in Rats
Male Sprague-Dawley rats (Taconic Europe, ˜250 g at test date) were acclimatized to reversed day light cycle (lights on from 10 PM to 10 AM) and single housing in online food intake monitoring system (Ellegaard MBRose, Denmark) prior to study start. […] Data are illustrated in graphs as mean±SEM.

[1] = target: T1, human amylin receptor (membranes from Amylin 3(a)/CRE-luc cells) (Homo sapiens, UniProt O60896+P30988); experiment: ASSAY (V) binding to the human amylin receptor (SPA, 125I-rat amylin); conditions: for IC50: Table 4, read-out: hAmylin-R bind IC50;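 as to all read-outs here: competition binding of cell membranes (35 ng/µL) mixed with SPA beads in 384-well plates at 40 µL total volume, read by scintillation counting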
T1 construct: expressed in transfected cells
T1 sequence (P30988 25-474): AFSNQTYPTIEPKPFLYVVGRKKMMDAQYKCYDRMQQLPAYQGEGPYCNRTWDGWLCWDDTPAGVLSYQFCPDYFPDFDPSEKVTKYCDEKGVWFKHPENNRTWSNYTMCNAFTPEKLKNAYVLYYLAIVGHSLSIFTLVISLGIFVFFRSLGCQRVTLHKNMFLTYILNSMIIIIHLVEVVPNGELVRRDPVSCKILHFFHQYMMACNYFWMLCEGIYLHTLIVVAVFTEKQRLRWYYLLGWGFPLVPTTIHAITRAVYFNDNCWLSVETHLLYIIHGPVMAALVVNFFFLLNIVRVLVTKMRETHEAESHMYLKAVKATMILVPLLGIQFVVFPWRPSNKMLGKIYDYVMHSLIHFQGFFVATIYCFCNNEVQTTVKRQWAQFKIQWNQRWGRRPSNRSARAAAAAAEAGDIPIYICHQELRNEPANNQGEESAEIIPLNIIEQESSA
T1 sequence (O60896 24-148 partner): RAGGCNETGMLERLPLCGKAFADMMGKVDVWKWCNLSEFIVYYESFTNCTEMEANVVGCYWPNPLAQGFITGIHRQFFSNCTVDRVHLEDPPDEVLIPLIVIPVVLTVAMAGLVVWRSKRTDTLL

[2] = target: T2, human amylin 3(a) receptor (human calcitonin receptor + RAMP-3) in BHK570 cells (Homo sapiens, UniProt O60896+P30988); experiment: ASSAY (II)a functional assay, human amylin receptor (CRE luciferase); assay type: cell-based; conditions: for EC50: human amylin receptor functional potency, assay (II), read-out: hAmylin-R funct. EC50
T2 construct: expressed in transfected cells
Method in brief: (§1)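 Cells were seeded and cultured overnight, then incubated with standard or sample for 3 h at 37° C in serum-containing medium at pH 7.4. The medium was then swapped for PBS, LucLite was added for 30 min at room temperature, and luminescence was recorded. Cells were BHK with CRE-luc and calcitonin receptor, ± RAMP-3.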

[3] = target: T3, human calcitonin (a) receptor in BHK570 cells (Homo sapiens, UniProt P30988); experiment: ASSAY (II)a functional assay, human calcitonin receptor (CRE luciferase); assay type: cell-based; conditions: read-out: hCTR funct. EC50
T3 construct: expressed in transfected cells
T3 sequence (P30988 25-474): T1 sequence (P30988 25-474)
Method in brief: as §1

[4] = target: T4, human calcitonin receptor (Homo sapiens, UniProt P30988); experiment: ASSAY (VII) binding to the human calcitonin receptor (SPA, 125I-Calcitonin); conditions: read-out: hCTR bind IC50;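 also: cell membranes (35 ng/µL) combined with SPA beads in 40 µL of pH 7.4 Hepes buffer, 384-well format, signal counted on a TopCounter instrument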
T4 construct: expressed in transfected cells
T4 sequence (P30988 25-474): T1 sequence (P30988 25-474)

[5] = Table 5, selectivity, hCTR bind IC50 / hAmylin-R bind IC50
[6] = Table 5a, selectivity, hCTR bind IC50 / hAmylin-R bind IC50
[7] = Table 5b, selectivity, hCTR bind IC50 / hAmylin-R bind IC50
[8] = Table 5c, selectivity, hCTR bind IC50 / hAmylin-R bind IC50
[9] = Table 7, human binding selectivity, included for comparison
[10] = Table 7a (preferred compounds), human binding selectivity, included for comparison
[11] = ratio of human calcitonin receptor binding IC50 to human amylin receptor binding IC50
[12] = hCTR funct. EC50 divided by hAmylin-R funct. EC50
[13] = hCTR funct. EC50 over hAmylin-R funct. EC50
[14] = human functional selectivity: hCTR funct. EC50 / hAmylin-R funct. EC50

Row | SMILES | Plasma calcium red (%) 0-12 h (maximal) (Male Wistar rats; single s.c., 30 nmol/kg, 0-12 h, compared to vehicle) [%] | suppression of plasma calcium level relative to vehicle (Male Wistar rats; single subcutaneous 30 nmol/kg, monitored over 24 hours) | Food intake red (%) 0-24 h (Male Sprague-Dawley rats; 0-24 h) [%] | Food intake red (%) 24-48 h (Male Sprague-Dawley rats; 24-48 h) [%] | Ratio hCT/hAmylin binding [1, 5] | Ratio hCT/hAmylin binding [1, 6] | Ratio hCT/hAmylin binding [1, 7] | Ratio hCT/hAmylin binding [1, 8] | Ratio hCT/hAmylin binding [1, 9] | Ratio hCT/hAmylin binding [1, 10] | Ratio hCT/hAmylin binding [1, 11] | Ratio hCT/hAmylin funct. [2, 12] | Ratio hCT/hAmylin funct. [2, 13] | Ratio hCT/hAmylin funct. [2, 14] | IC50 [1] [nM] | EC50 [3] [nM] | Ratio hCT/hAmylin funct. ([2]; hCTR funct. EC50 / hAmylin-R funct. EC50) | EC50 [2] [nM] | IC50 [4] [nM]
1 | CC[C@H](C)[C@H](NC(=O)[C@H](C)NC(=O)CNC(=O)[C@H](Cc1ccccc1)NC(=O)[C@H](CC(N)=O)NC(=O)[C@@H]1CCCN1C(=O)[C@H](CO)NC(=O)[C@H](CO)NC(=O)[C@H](Cc1c[nH]cn1)NC(=O)[C@H](CCCNC(=N)N)NC(=O)[C@H](CC(C)C)NC(=O)[C@H](Cc1ccccc1)NC(=O)[C@H](CCC(=O)O)NC(=O)[C@H](C)NC(=O)[C@H](CC(C)C)NC(=O)[C@H](CCCNC(=N)N)NC(=O)[C@H](CCC(N)=O)NC(=O)[C@@H](NC(=O)[C@H](C)NC(=O)[C@@H]1CSSC[C@H](NC(=O)[C@@H](N)CCCCNC(=O)CC[C@H](NC(=O)CCCCCCCCCCCCCCCCCCC(=O)O)C(=O)O)C(=O)N[C@@H](CC(N)=O)C(=O)N[C@@H]([C@@H](C)O)C(=O)N[C@@H](C)C(=O)N[C@@H]([C@@H](C)O)C(=O)N1)[C@@H](C)O)C(=O)N1CCC[C@H]1C(=O)N[C@@H](CO)C(=O)N[C@@H](CO)C(=O)N[C@H](C(=O)N[C@@H](CC(N)=O)C(=O)N[C@H](C(=O)NCC(=O)N[C@@H](CO)C(=O)N[C@@H](CCCNC(=N)N)C(=O)N[C@H](C(=O)N[C@@H](Cc1ccc(O)cc1)C(N)=O)[C@@H](C)O)C(C)C)[C@@H](C)O [Example 51] (H-K([γGlu-C20 diacid])CNTATCATQRLAEFLRHSSPNFGAIPSSTNVGSRTY-NH2; disulfide 2-7 (inferred); N-terminus assumed) | 10 | None of the example compounds at 30 nmol/kg trigger a notable suppression of the calcium level | 52 | 30 | 37.5 | 37.5 | 37.5 | 37.5 | 37.5 | 37.5 | 37.5 | 14.0 | 14.0 | 14.0 |  |  |  |  | 
2 | CC[C@H](C)[C@H](NC(=O)[C@H](C)NC(=O)CNC(=O)[C@H](Cc1ccccc1)NC(=O)[C@H](CC(N)=O)NC(=O)[C@@H]1CCCN1C(=O)[C@H](CO)NC(=O)[C@H](CO)NC(=O)[C@H](Cc1c[nH]cn1)NC(=O)[C@H](CCCNC(=N)N)NC(=O)[C@H](CC(C)C)NC(=O)[C@H](Cc1ccccc1)NC(=O)[C@H](CC(=O)O)NC(=O)[C@H](C)NC(=O)[C@H](CC(C)C)NC(=O)[C@H](CCCNC(=N)N)NC(=O)[C@H](CCC(N)=O)NC(=O)[C@@H](NC(=O)[C@H](C)NC(=O)[C@@H]1CSSC[C@H](NC(=O)[C@@H](N)CCCCNC(=O)CC[C@H](NC(=O)CCCCCCCCCCCCCCCCCCC(=O)O)C(=O)O)C(=O)N[C@@H](CC(N)=O)C(=O)N[C@@H]([C@@H](C)O)C(=O)N[C@@H](C)C(=O)N[C@@H]([C@@H](C)O)C(=O)N1)[C@@H](C)O)C(=O)N1CCC[C@H]1C(=O)N[C@@H](CO)C(=O)N[C@@H](CO)C(=O)N[C@H](C(=O)N[C@@H](CC(N)=O)C(=O)N[C@H](C(=O)NCC(=O)N1CCC[C@H]1C(=O)N[C@@H](CCC(=O)O)C(=O)N[C@H](C(=O)N[C@@H](Cc1ccc(O)cc1)C(N)=O)[C@@H](C)O)C(C)C)[C@@H](C)O [Example 123] (H-K([γGlu-C20 diacid])CNTATCATQRLADFLRHSSPNFGAIPSSTNVGPETY-NH2; disulfide 2-7; N-terminus assumed) |  |  |  |  | 16.7 | 16.7 | 16.7 |  | 16.7 | 16.7 | 16.7 | 3.9 | 3.9 | 3.9 | 0.196 | 1.11 | 3.9 | 0.288 | 3.27
3 | CC[C@H](C)[C@H](NC(=O)[C@H](C)NC(=O)CNC(=O)[C@H](Cc1ccccc1)NC(=O)[C@H](CC(N)=O)NC(=O)[C@@H]1CCCN1C(=O)[C@H](CO)NC(=O)[C@H](CO)NC(=O)[C@H](Cc1c[nH]cn1)NC(=O)[C@H](CCCNC(=N)N)NC(=O)[C@H](CC(C)C)NC(=O)[C@H](Cc1ccccc1)NC(=O)[C@H](CC(=O)O)NC(=O)[C@H](C)NC(=O)[C@H](CC(C)C)NC(=O)[C@H](CCCNC(=N)N)NC(=O)[C@H](CCC(N)=O)NC(=O)[C@@H](NC(=O)[C@H](C)NC(=O)[C@@H]1CSSC[C@H](NC(=O)[C@@H](N)CCCCNC(=O)CC[C@H](NC(=O)CCCCCCCCCCCCCCCCCCC(=O)O)C(=O)O)C(=O)N[C@@H](CC(N)=O)C(=O)N[C@@H]([C@@H](C)O)C(=O)N[C@@H](C)C(=O)N[C@@H]([C@@H](C)O)C(=O)N1)[C@@H](C)O)C(=O)N1CCC[C@H]1C(=O)N[C@@H](CO)C(=O)N[C@@H](CO)C(=O)N[C@H](C(=O)N[C@@H](CC(N)=O)C(=O)N[C@H](C(=O)NCC(=O)N1CCC[C@H]1C(=O)N[C@@H](CCCNC(=N)N)C(=O)N[C@H](C(=O)N[C@@H](Cc1ccc(O)cc1)C(N)=O)[C@@H](C)O)C(C)C)[C@@H](C)O [Example 129] (H-K([γGlu-C20 diacid])CNTATCATQRLADFLRHSSPNFGAIPSSTNVGPRTY-NH2; disulfide 2-7 (inferred); N-terminus assumed) |  |  |  |  | 151.1 | 151.1 | 151.1 | 151.1 | 151.1 | 151.1 | 151.1 | 24.9 | 24.9 | 24.9 | 0.281 | 3.64 |  | 0.146 | 42.5
